Assay results as given in ChEMBL document CHEMBL4152254, “Pyridinyl- and pyridazinyl-3,6-diazabicyclo[3.1.1]heptane-anilines: Novel selective ligands with subnanomolar affinity for α4β2 nACh receptors” (Eur J Med Chem, 2018).
The source made the active and inactive calls. The rule behind the calls is not given here.

How the values were obtained:
[1] = organism: Rattus norvegicus; experiment: Selectivity ratio of Ki for alpha7 nAChR in rat hippocampal membranes to Ki for alpha4beta2 nAChR in rat cortex membranes; assay type: cell membranes
[2] = biological target: Neuronal acetylcholine receptor; alpha4/beta2 (Rattus norvegicus, UniProt P09483+P12390); experiment: Displacement of [3H]epibatidine from alpha4beta2 nAChR in rat cortex membranes; assay type: cell membranes
Sequence of Neuronal acetylcholine receptor; alpha4/beta2 (Rattus norvegicus, UniProt P09483+P12390) (P09483 whole entry): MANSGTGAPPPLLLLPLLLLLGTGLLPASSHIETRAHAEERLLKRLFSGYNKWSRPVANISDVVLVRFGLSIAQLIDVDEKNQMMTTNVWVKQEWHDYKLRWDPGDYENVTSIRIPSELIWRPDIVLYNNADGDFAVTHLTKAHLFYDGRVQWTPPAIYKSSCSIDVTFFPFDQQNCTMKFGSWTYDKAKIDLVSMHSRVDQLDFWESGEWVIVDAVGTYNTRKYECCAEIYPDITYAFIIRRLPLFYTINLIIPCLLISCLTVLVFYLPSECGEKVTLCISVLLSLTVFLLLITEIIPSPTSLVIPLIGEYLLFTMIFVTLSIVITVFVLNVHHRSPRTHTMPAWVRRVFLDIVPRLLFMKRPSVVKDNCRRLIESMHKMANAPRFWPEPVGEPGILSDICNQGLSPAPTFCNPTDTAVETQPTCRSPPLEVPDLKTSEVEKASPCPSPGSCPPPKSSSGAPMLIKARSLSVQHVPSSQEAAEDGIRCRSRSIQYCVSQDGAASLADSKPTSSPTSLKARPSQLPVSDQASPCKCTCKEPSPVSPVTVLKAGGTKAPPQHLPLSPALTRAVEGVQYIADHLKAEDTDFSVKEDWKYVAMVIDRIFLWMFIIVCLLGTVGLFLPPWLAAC
Sequence of Neuronal acetylcholine receptor; alpha4/beta2 (Rattus norvegicus, UniProt P09483+P12390) (P12390 whole entry): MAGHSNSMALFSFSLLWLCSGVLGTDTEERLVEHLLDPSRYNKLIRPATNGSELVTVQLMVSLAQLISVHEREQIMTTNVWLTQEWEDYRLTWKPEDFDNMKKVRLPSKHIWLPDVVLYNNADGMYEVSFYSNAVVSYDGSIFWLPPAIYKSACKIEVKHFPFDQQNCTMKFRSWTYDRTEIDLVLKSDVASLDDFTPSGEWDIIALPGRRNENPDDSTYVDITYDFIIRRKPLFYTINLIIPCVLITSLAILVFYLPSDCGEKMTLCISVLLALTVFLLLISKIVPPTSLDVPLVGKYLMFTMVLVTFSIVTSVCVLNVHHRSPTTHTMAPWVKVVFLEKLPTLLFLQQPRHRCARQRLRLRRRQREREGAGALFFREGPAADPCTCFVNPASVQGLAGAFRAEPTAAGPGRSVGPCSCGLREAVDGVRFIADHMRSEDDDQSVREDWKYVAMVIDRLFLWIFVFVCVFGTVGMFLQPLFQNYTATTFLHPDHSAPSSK

[3] = biological target: T1, Neuronal acetylcholine receptor; alpha3/beta4 (Homo sapiens, UniProt P30926+P32297); experiment: Displacement of [3H]epibatidine from human alpha3beta4 nAChR expressed in HEK293 cell membranes
T1 sequence (P30926 whole entry): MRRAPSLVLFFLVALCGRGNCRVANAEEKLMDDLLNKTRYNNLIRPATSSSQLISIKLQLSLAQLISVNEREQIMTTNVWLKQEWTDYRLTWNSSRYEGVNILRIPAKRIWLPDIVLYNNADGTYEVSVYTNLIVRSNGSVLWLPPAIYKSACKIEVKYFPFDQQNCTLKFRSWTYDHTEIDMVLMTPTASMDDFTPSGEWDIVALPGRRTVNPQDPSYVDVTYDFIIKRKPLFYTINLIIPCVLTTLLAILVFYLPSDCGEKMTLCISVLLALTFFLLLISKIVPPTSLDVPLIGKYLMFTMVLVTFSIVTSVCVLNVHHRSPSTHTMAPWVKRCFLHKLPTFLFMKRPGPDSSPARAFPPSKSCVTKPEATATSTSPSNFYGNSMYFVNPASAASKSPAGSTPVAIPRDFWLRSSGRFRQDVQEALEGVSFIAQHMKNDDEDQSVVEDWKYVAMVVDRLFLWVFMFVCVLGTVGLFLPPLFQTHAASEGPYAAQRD
T1 sequence (P32297 whole entry): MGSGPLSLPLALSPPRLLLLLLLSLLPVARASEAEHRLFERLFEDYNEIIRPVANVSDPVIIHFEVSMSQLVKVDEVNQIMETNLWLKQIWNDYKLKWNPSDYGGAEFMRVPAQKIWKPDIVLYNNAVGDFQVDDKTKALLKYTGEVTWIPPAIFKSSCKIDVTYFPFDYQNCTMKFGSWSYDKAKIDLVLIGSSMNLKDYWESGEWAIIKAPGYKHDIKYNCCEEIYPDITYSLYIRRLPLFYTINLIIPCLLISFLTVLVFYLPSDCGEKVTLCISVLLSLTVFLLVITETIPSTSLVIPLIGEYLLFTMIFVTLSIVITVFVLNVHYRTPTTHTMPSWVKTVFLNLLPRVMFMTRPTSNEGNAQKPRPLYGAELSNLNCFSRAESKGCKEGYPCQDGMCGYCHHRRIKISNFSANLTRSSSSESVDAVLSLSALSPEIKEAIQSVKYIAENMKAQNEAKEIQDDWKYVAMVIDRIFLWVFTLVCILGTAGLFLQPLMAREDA

[4] = Selectivity ratio of Ki for human alpha3beta4 nAChR expressed in HEK293 cell membranes to Ki for alpha4beta2 nAChR in rat cortex membranes; assay type: cell-based
[5] = biological target: Neuronal acetylcholine receptor subunit alpha-7 (Rattus norvegicus, UniProt Q05941); experiment: Displacement of [125I]alpha-bungarotoxin from alpha7 nAChR in rat hippocampal membranes; assay type: cell membranes
Sequence of Neuronal acetylcholine receptor subunit alpha-7 (Q05941 whole entry): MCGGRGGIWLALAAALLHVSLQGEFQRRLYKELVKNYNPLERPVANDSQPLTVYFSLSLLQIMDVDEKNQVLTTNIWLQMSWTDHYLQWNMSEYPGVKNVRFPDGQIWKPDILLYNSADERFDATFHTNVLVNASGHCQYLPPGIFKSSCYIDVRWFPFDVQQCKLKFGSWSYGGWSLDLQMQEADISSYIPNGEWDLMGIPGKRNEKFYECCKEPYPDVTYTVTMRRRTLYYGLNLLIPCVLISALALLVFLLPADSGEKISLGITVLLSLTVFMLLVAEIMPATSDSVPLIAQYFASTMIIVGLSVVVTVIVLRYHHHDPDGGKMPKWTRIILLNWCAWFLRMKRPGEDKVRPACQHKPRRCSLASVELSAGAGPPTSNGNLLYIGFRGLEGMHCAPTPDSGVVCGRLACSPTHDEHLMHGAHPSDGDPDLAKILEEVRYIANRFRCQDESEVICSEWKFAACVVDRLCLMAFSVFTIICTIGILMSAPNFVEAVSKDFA

[6] = biological target: T2, Neuronal acetylcholine receptor; alpha4/beta2 (Homo sapiens, UniProt P17787+P43681); experiment: Agonist activity at alpha4beta2 nAChR (unknown origin); assay type: protein-complex assay
T2 sequence (P17787 whole entry): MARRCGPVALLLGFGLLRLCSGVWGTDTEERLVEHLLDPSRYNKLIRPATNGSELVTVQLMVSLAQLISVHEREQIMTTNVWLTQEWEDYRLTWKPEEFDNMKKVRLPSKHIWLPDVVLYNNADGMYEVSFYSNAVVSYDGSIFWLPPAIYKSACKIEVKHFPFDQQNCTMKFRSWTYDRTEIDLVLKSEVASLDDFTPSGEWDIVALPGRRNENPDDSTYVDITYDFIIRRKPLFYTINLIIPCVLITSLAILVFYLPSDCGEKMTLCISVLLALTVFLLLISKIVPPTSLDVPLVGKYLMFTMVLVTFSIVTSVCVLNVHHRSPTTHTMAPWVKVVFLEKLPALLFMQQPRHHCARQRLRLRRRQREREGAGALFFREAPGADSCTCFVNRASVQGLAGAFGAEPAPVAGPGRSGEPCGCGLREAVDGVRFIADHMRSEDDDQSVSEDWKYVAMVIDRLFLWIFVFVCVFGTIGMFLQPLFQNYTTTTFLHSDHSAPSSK
T2 sequence (P43681 whole entry): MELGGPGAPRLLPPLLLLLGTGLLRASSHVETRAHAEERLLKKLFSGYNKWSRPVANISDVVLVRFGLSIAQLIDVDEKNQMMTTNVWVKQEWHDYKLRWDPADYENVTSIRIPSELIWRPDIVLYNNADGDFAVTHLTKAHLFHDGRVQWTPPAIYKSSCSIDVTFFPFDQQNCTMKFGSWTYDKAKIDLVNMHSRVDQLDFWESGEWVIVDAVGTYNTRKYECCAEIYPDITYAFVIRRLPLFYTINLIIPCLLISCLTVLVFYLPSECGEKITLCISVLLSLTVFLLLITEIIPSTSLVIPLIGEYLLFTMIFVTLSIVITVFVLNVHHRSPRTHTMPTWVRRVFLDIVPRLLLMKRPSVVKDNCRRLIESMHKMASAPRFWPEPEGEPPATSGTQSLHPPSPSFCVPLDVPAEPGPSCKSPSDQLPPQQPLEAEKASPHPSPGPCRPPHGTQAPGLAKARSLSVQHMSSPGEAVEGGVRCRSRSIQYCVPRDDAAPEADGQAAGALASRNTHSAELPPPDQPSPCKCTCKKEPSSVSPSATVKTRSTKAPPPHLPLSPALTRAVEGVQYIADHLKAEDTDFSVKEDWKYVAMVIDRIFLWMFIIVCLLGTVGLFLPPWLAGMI

[7] = biological target: T2, Neuronal acetylcholine receptor; alpha4/beta2; experiment: Agonist activity at human alpha4beta2 nAChR expressed in rat GH4C1 cells assessed as inward channel current amplitude at -70 mV holding potential by whole cell electrophysiology method; assay type: cell-based
[8] = biological target: T1, Neuronal acetylcholine receptor; alpha3/beta4; experiment: Agonist activity at human alpha3beta4 nAChR expressed in rat GH4C1 cells assessed as inward channel current amplitude at 100 uM at -70 mV holding potential by whole cell electrophysiology method relative to acetylcholine; assay type: cell-based
[9] = biological target: T2, Neuronal acetylcholine receptor; alpha4/beta2; experiment: Agonist activity at human alpha4beta2 nAChR expressed in rat GH4C1 cells assessed as inward channel current amplitude at 100 uM at -70 mV holding potential by whole cell electrophysiology method relative to acetylcholine; assay type: cell-based
[10] = biological target: T1, Neuronal acetylcholine receptor; alpha3/beta4; experiment: Agonist activity at human alpha3beta4 nAChR expressed in rat GH4C1 cells assessed as inward channel current amplitude at -70 mV holding potential by whole cell electrophysiology method; assay type: cell-based
[11] = biological target: Neuronal acetylcholine receptor subunit alpha-7 (Homo sapiens) (UniProt P36544); experiment: Agonist activity at human alpha7 nAChR expressed in rat GH4C1 cells assessed as inward channel current amplitude at 100 uM at -70 mV holding potential by whole cell electrophysiology method; assay type: cell-based
Sequence of Neuronal acetylcholine receptor subunit alpha-7 (Homo sapiens) (P36544 whole entry): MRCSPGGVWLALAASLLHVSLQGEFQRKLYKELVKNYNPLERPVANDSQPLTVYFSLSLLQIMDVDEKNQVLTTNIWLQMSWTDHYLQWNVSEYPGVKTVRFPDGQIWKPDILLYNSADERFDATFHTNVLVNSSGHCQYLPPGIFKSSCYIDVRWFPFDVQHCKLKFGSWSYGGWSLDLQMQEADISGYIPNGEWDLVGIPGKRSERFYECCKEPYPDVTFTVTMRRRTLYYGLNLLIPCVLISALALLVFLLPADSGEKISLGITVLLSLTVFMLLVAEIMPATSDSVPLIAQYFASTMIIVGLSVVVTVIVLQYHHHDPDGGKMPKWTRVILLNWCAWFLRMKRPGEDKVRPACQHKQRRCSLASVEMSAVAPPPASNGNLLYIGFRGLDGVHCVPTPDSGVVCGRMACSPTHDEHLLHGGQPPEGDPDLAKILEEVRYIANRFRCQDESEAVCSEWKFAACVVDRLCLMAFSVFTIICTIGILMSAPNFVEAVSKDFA

Row | SMILES | Ratio Ki [1] | Ki [2] | Ki [3] | Ratio Ki [4] | Ki [5] | other results
1 | Clc1cccc(Nc2ccc(N3CC4CC(C3)N4)cn2)c1 | 1500 | 2.2 nM | 4.8 nM | 2 | 3300 nM | –
2 | c1cncc(N2C[C@H]3C[C@@H]2CN3)c1 | – | – | – | – | – | Ki [6]: 0.02 nM
3 | Clc1ccc(Nc2cncc(N3CC4CC(C3)N4)c2)cc1Cl | 1520 | 1.25 nM | – | – | 1900 nM | –
4 | O=[N+]([O-])c1ccc(Nc2cncc(N3CC4CC(C3)N4)c2)cc1 | 10700 | 0.0225 nM | 0.684 nM | 30 | 241 nM | –
5 | c1ccc(Nc2ccc(N3CC4CC(C3)N4)nn2)cc1 | 24 | 441 nM | – | – | 10400 nM | –
6 | O=[N+]([O-])c1ccc(Nc2ccc(N3CC4CC(C3)N4)nn2)cc1 | 80 | 86.2 nM | – | – | 6900 nM | –
7 | Cc1ccc(Nc2cncc(N3CC4CC(C3)N4)c2)cc1 | 2030 | 0.148 nM | 1.4 nM | 9 | 300 nM | –
8 | Clc1ccc(N2CC3CCC(C2)N3)nn1 | – | – | – | – | – | Ki [6]: 4.1 nM
9 | Clc1ccc(Nc2ccc(N3CC4CC(C3)N4)nn2)cc1Cl | 10 | 516 nM | – | – | 5100 nM | –
10 | c1cncc(N2CC3CCC(C2)N3)c1 | – | – | – | – | – | Ki [6]: 0.4 nM
11 | Fc1ccc(Nc2ccc(N3CC4CC(C3)N4)nn2)cc1 | 128 | 868 nM | – | – | 111000 nM | –
12 | c1cc2c(cc1Nc1ccc(N3CC4CC(C3)N4)cn1)OCO2 | 150 | 41 nM | – | – | 6150 nM | –
13 | Clc1ccc(Nc2cncc(N3CC4CC(C3)N4)c2)cc1 | 983 | 0.118 nM | 1.2 nM | 10 | 116 nM | –
14 | c1ccc(Nc2ccc(N3CC4CC(C3)N4)cn2)cc1 | 179 | 2.66 nM | – | – | 475 nM | –
15 | Oc1ccc(Nc2ccc(N3CC4CC(C3)N4)cn2)cc1 | 310 | 7.1 nM | 165 nM | 23 | 2200 nM | –
16 | COc1ccc(Nc2ccc(N3CC4CC(C3)N4)nn2)cc1 | 87 | 578 nM | – | – | 50200 nM | –
17 | Fc1ccc(Nc2ccc(N3CC4CC(C3)N4)cn2)cc1 | 546 | 2.38 nM | 13 nM | 5 | 1300 nM | –
18 | FC(F)(F)c1ccc(Nc2cncc(N3CC4CC(C3)N4)c2)cc1 | 499 | 0.373 nM | 1.02 nM | 3 | 186 nM | –
19 | c1ccc(Nc2cncc(N3CC4CC(C3)N4)c2)cc1 | 333 | 0.0807 nM | 0.799 nM | 10 | 26.9 nM | –

Row | SMILES | Ratio Ki [1] | Ki [2] | Ki [3] | Ratio Ki [4] | Ki [5] | other results
20 | Clc1cccc(Nc2cncc(N3CC4CC(C3)N4)c2)c1 | 9680 | 0.124 nM | 293 nM | 2360 | 1200 nM | –
21 | Fc1ccc(Nc2cncc(N3CC4CC(C3)N4)c2)cc1 | 4850 | 0.091 nM | 1.25 nM | 14 | 441 nM | –
22 | c1cncc(N2C[C@@H]3C[C@H]2CN3)c1 | – | – | – | – | – | Ki [6]: 0.15 nM
23 | Oc1ccc(Nc2cncc(N3CC4CC(C3)N4)c2)cc1 | 6140 | 0.342 nM | 0.988 nM | 3 | 2100 nM | –
24 | COc1ccc(Nc2cncc(N3CC4CC(C3)N4)c2)cc1 | 14000 | 0.0598 nM | 2.2 nM | 37 | 837 nM | EC50 [7]: 1900 nM; Emax [8]: 42.3%; Emax [9]: 11%; EC50 [10]: 2900 nM; Activity [11]: inactive
25 | Clc1ccc(N2CC3CC2CN3)cn1 (centres undefined) | – | – | – | – | – | Ki [6]: 0.018 nM
26 | CN(c1ccccc1)c1cncc(N2CC3CC(C2)N3)c1 | 154 | 2.06 nM | – | – | 317 nM | –
27 | Cc1ccc(Nc2ccc(N3CC4CC(C3)N4)cn2)cc1 | 1700 | 52.1 nM | – | – | 88800 nM | –
28 | COc1ccc(Nc2ccc(N3CC4CC(C3)N4)cn2)cc1 | 412 | 7.3 nM | 9.03 nM | 1 | 3010 nM | –
29 | Cc1ccc(Nc2ccc(N3CC4CC(C3)N4)nn2)cc1 | 490 | 44.3 nM | – | – | 21700 nM | –
30 | CN(c1ccccc1)c1ccc(N2CC3CC(C2)N3)nn1 | 71 | 1430 nM | – | – | 101000 nM | –
31 | FC(F)(F)c1ccc(Nc2ccc(N3CC4CC(C3)N4)cn2)cc1 | 413 | 0.569 nM | 0.818 nM | 1 | 235 nM | –
32 | O=[N+]([O-])c1ccc(Nc2ccc(N3CC4CC(C3)N4)cn2)cc1 | 2330 | 1.76 nM | 25 nM | 14 | 4100 nM | EC50 [7]: > 10000 nM; EC50 [10]: > 10000 nM; Activity [11]: inactive
33 | Clc1ccc(N2CC3CCC(C2)N3)cn1 | – | – | – | – | – | Ki [6]: 0.95 nM
34 | Clc1ccc(Nc2ccc(N3CC4CC(C3)N4)cn2)cc1 | 330 | 2.49 nM | – | – | 823 nM | –
35 | Clc1ccc(Nc2ccc(N3CC4CC(C3)N4)nn2)cc1 | 191 | 90.4 nM | – | – | 17300 nM | –
36 | Clc1cccc(Nc2ccc(N3CC4CC(C3)N4)nn2)c1 | 27 | 1540 nM | – | – | 41800 nM | –
37 | FC(F)(F)c1ccc(Nc2ccc(N3CC4CC(C3)N4)nn2)cc1 | 294 | 6.9 nM | 115 nM | 17 | 2030 nM | –
38 | Clc1ccc(Nc2ccc(N3CC4CC(C3)N4)cn2)cc1Cl | 887 | 2.3 nM | 40.9 nM | 18 | 2040 nM | –
